Results reported in patent publication US20090270386A1, “THERAPEUTIC COMPOUNDS” (ALLERGAN, INC., priority 2008, published 2009).

How the values were obtained:
normotensive dogs = assay: Intraocular pressure reduction in normotensive dogs; format: in vivo
Experimental: U.S. Pat. No. 7,091,231 describes the methods used for these in vivo tests.
Compounds such as those described in the above are tested in vivo to measure its ability to reduce intraocular pressure. Compound 14a is tested in normotensive dogs.

[1] = tested on: laser-induced hypertensive monkeys; assay: Intraocular pressure reduction in laser-induced hypertensive monkeys; format: in vivo
[2] = tested on: lashes and adjacent hairs of glaucoma patients; assay: Observation of eyelash/hair growth in glaucoma patients treated in one eye; format: in vivo, humans; details: glaucoma patients treated unilaterally
Excerpt: In the course of treating patients having glaucoma, treatment may only be appropriate in one eye. […] The lash appearance on the lids of the treated eyes would have appeared quite attractive if it represented a bilateral phenomenon. As a result of its asymmetric nature, the long lashes on one side could be construed as disturbing from a cosmetic standpoint. A systemic examination was preformed as a result of the asymmetric phenomenon. It soon became apparent that this altered appearance was not an isolated finding. […] Definite differences could be identified to varying degrees in the lashes and adjacent hairs of all patients who were taking the drug on a unilateral basis for longer than 6 months.
The changes in the lashes were apparent on gross inspection in several patients once attention was focused on the issue. In those with light colored hair and lashes, the differences were only seen easily with the aid of the high magnification and lighting capabilities of the slit lamp biomicroscope. In the course of glaucoma follow-up examination, attention is generally immediately focused on the eye itself. As a result of the high power magnification needed only one eye is seen at a time and the eye is seen at a high enough power that the lashes are not in focus. […]

Question: Which results are given for `O=C(OCCO)c1ccc(CCCC2C(=O)CCC2COc2cc(Cl)cc(CO)c2)s1` (centres unmarked) [Compound 46a]?
Answer: intraocular pressure (IOP) change from baseline (normotensive dogs): decreases from baseline; IOP change from baseline [1]: decreases from baseline

Question: Which results are given for `O=C(OCCO)c1ccc(CCCC2C(Cl)CC(O)C2COc2cc(Cl)cc(Cl)c2)s1` (centres unmarked) [Compound 33a]?
Answer: intraocular pressure (IOP) change from baseline (normotensive dogs): decreases from baseline; IOP change from baseline [1]: decreases from baseline

Question: Which results are given for `CC(=O)OCCc1cc(Cl)cc(OCC2C(O)CC(Cl)C2CC=CCCCC(=O)OCCO)c1` (centres unmarked) [Compound 16a]?
Answer: intraocular pressure (IOP) change from baseline (normotensive dogs): decreases from baseline; IOP change from baseline [1]: decreases from baseline

Question: How did the “intraocular pressure (IOP) change from baseline” value (normotensive dogs) turn out when `O=C(OCCN1CCOCC1)c1ccc(CCCC2C(Cl)CCC2COc2cc(Cl)cc(CO)c2)s1` (centres unmarked) [Compound 51b] was run?
Answer: decreases from baseline

Question: What about the “IOP change from baseline” value [1] of the same compound?
Answer: decreases from baseline

Question: With `O=C(OCCO)c1ccc(CCCC2C(Cl)CCC2COc2cc(Cl)cc(CO)c2)s1` (centres unmarked) [Compound 51a] as the compound, how does the “intraocular pressure (IOP) change from baseline” value (normotensive dogs) read?
Answer: decreases from baseline

Question: What about the “IOP change from baseline” value [1] of the same compound?
Answer: decreases from baseline

Question: What does the source list for `O=C(OCCN1CCOCC1)c1ccc(CCCC2C(Cl)CC(O)C2COc2cc(Cl)cc(Cl)c2)s1` (centres unmarked) [Compound 33b]?
Answer: intraocular pressure (IOP) change from baseline (normotensive dogs): decreases from baseline; IOP change from baseline [1]: decreases from baseline

Question: Which results are given for `O=C(OCCO)c1ccc(CCCC2C(Cl)CC(O)C2COc2cc(Cl)cc(CO)c2)s1` (centres unmarked) [Compound 34a]?
Answer: intraocular pressure (IOP) change from baseline (normotensive dogs): decreases from baseline; IOP change from baseline [1]: decreases from baseline

Question: With `CC(=O)OCCc1cc(Cl)cc(OCC2C(O)CC(Cl)C2CC=CCCCC(=O)OCCN2CCOCC2)c1` (centres unmarked) [Compound 16b] as the compound, how does the “intraocular pressure (IOP) change from baseline” value (normotensive dogs) read?
Answer: decreases from baseline

Question: And the “IOP change from baseline” value [1]?
Answer: decreases from baseline

Question: Which “intraocular pressure (IOP) change from baseline” value (normotensive dogs) does the source give for `Cc1cc(C)cc(OCC2C(O)CC(Cl)C2CCCc2ccc(C(=O)OCCO)s2)c1` (centres unmarked) [Compound 35a] here?
Answer: decreases from baseline

Question: And the “IOP change from baseline” value [1]?
Answer: decreases from baseline

Question: Which “intraocular pressure (IOP) change from baseline” value (normotensive dogs) does the source give for `N#CC1CC(O)C(COc2cc(Cl)cc(Cl)c2)C1CCCc1ccc(C(=O)OCCO)s1` (centres unmarked) [Compound 58a] here?
Answer: decreases from baseline

Question: And the “IOP change from baseline” value [1]?
Answer: decreases from baseline

Question: Which results are given for `N#CC1CC(O)C(COc2cc(Cl)cc(Cl)c2)C1CCCc1ccc(C(=O)OCCN2CCOCC2)s1` (centres unmarked) [Compound 58b]?
Answer: intraocular pressure (IOP) change from baseline (normotensive dogs): decreases from baseline; IOP change from baseline [1]: decreases from baseline

Question: `O=C(OCCN1CCOCC1)c1ccc(CCCC2C(Cl)CC(O)C2COc2cc(Cl)cc(CO)c2)s1` (centres unmarked) [Compound 34b] was tested. Which “intraocular pressure (IOP) change from baseline” value (normotensive dogs) did it give?
Answer: decreases from baseline

Question: And the “IOP change from baseline” value [1]?
Answer: decreases from baseline

Question: How did the “intraocular pressure (IOP) change from baseline” value (normotensive dogs) turn out when `COCc1cc(Cl)cc(OCC2C(O)CC(Cl)C2CC=CCCCC(=O)OCCN2CCOCC2)c1` (centres unmarked) [Compound 22b] was run?
Answer: decreases from baseline

Question: What about the “IOP change from baseline” value [1] of the same compound?
Answer: decreases from baseline

Question: Which results are given for `COCc1cc(Cl)cc(OCC2C(O)CC(Cl)C2CC=CCCCC(=O)OCCO)c1` (centres unmarked) [Compound 22a]?
Answer: intraocular pressure (IOP) change from baseline (normotensive dogs): decreases from baseline; IOP change from baseline [1]: decreases from baseline

Question: How did the “intraocular pressure (IOP) change from baseline” value (normotensive dogs) turn out when `O=C(OCCN1CCOCC1)c1ccc(CCCC2=CCC(O)C2COc2cc(Cl)cc(Cl)c2)s1` (centres unmarked) [Compound 68b] was run?
Answer: decreases from baseline

Question: And the “IOP change from baseline” value [1]?
Answer: decreases from baseline

Question: `CCNC(=O)CCC/C=C\C[C@@H]1[C@@H](/C=C/[C@@H](O)CCc2ccccc2)[C@H](O)C[C@@H]1O` [bimatoprost] was tested. Which “lash appearance in treated eye versus non-treated eye” value [2] did it give?
Answer: longer, thicker, and fuller in the treated eye

Question: Which results are given for `O=C(OCCN1CCOCC1)c1ccc(CCCC2C(F)CC(O)C2COc2cc(Cl)cc(Cl)c2)s1` (centres unmarked) [Compound 70b]?
Answer: intraocular pressure (IOP) change from baseline (normotensive dogs): decreases from baseline; IOP change from baseline [1]: decreases from baseline

Question: What does the source list for `O=C(OCCO)c1ccc(CCCC2C(F)CC(O)C2COc2cc(Cl)cc(Cl)c2)s1` (centres unmarked) [Compound 70a]?
Answer: intraocular pressure (IOP) change from baseline (normotensive dogs): decreases from baseline; IOP change from baseline [1]: decreases from baseline

Question: For `O=C(OCCO)c1ccc(CCCC2=CCC(O)C2COc2cc(Cl)cc(Cl)c2)s1` (centres unmarked) [Compound 68a], which “intraocular pressure (IOP) change from baseline” value (normotensive dogs) is on record?
Answer: decreases from baseline

Question: And the “IOP change from baseline” value [1]?
Answer: decreases from baseline

Question: With `O=C(OCCN1CCOCC1)c1ccc(CCCC2C(=O)CCC2COc2cc(Cl)cc(CO)c2)s1` (centres unmarked) [Compound 46b] as the compound, how does the “intraocular pressure (IOP) change from baseline” value (normotensive dogs) read?
Answer: decreases from baseline

Question: What about the “IOP change from baseline” value [1] of the same compound?
Answer: decreases from baseline

Question: Which results are given for `Cc1cc(C)cc(OCC2C(O)CC(Cl)C2CCCc2ccc(C(=O)OCCN3CCOCC3)s2)c1` (centres unmarked) [Compound 35b]?
Answer: intraocular pressure (IOP) change from baseline (normotensive dogs): decreases from baseline; IOP change from baseline [1]: decreases from baseline
